The values that follow come from article PMC11576293, “New series of 4,6-diaryl pyrimidines: facile synthesis and antiproliferative activity as dual EGFR/VEGFR-2 inhibitors” (Frontiers in Chemistry, 2024).

The structures appear in SMILES notation.

Data set [1] can be described thus: Cell viability assay (MTT) on normal cells. Type of data set: cell-based. The conditions noted are these: human, MCF-10A normal mammary gland epithelial cells, 4 days incubation. On the procedure: This experiment examines the impact of the newly developed compounds 9–29 on normal cell lines to assess their safety level. The vitality of the investigated compounds was assessed using the MCF-10 A cell line, a normal human mammary gland epithelial cell line. Following 4 days of incubation on MCF-10 A cells with each examined compound at a concentration of 50 μM, the vitality of the cells was assessed using the MTT test ([Mahmoud et al., 2022]; [Mekheimer et al., 2022]).
This experiment examines the impact of the newly developed compounds 9–29 on normal cell lines to assess their safety level. The viability of 9–29 was assessed using the MCF-10 A cell line, a normal human mammary gland epithelial cell line. Following 4 days of incubation on MCF-10 A cells with each examined compound at a concentration of 50 μM, the vitality of the cells was assessed using the MTT test ([Mahmoud et al., 2022]; [Mekheimer et al., 2022]). Refer to Supplementary Material A1 for more details. […]
4.2. Biological evaluation
4.2.1. Cytotoxic activity using MTT Assay and evaluation of IC50
MTT assay was carried out to study the effect of compounds on mammary epithelial cells (MCF-10A). The medium in which cells were propagated contained Dulbecco's modified Eagle's medium (DMEM)/ Ham's F-12 medium (1:1) supplemented with epidermal growth factor (20 ng/mL), hydrocortisone (500 ng/mL), insulin (10 μg/mL), 2 mM glutamine and 10% foetal calf serum.
After every 2-3 days, the cells were passaged using trypsin ethylenediamine tetra acetic acid (EDTA). The cells were seeded at a density of 10^4 cells mL-1 in flat-bottomed culture plates containing 96 wells each. After 24 h, medium was removed from the plates and the compounds in (in 0.1% DMSO) were added (in 200 μL medium to yield a final concentration of 0.1% v/v) to the wells of plates. A single compound was designated with four wells followed by incubation of plates for 96h at 37°C. After incubation, medium was removed completely from the plates followed by addition of MTT (0.4 mg/mL in medium) to each well and subsequent incubation of plates for 3h. MTT (along with the medium) was removed and DMSO (150μL) was added to each well of the culture plates, followed by vertexing and subsequent measurement of absorbance (at 540 nm) using microplate reader. The data are shown as percentage inhibition of proliferation in comparison with controls containing 0.1% DMSO. […]

The test system of data set [2] is four cancer cell lines (A-549, MCF-7, Panc-1, HT-29). In words: Antiproliferative assay, average over four cancer cell lines. In kind it is cell-based. Particulars: Homo sapiens; average of the four cancer cell lines; read-out: Average IC50 (GI50). From the text: Table 2 presents the four cancer cell lines’ median inhibitory concentration (IC50) and GI50 (average IC50) values.
The IC50 values were derived from dose-response tests. The reported data are derived from at least two independent studies, each comprising three replicates per concentration. See Supplementary Material A1 for more details.

For data set [3], the system named is MCF-7. In words: Antiproliferative assay (MTT). The conditions noted are these: Homo sapiens, MCF7, MCF-7 (breast), read-out: Antiproliferative activity IC50 ± SEM, MCF-7. In kind it is cell-based. From the text: (§1) The MTT test was employed for this investigation ([Hisham et al., 2022]; [El-Sherief et al., 2019]; [Ramadan et al., 2020]). Table 2 presents the four cancer cell lines’ median inhibitory concentration (IC50) and GI50 (average IC50) values.
(§2) The MTT test was employed for this investigation ([Hisham et al., 2022]; [El-Sherief et al., 2019]; [Ramadan et al., 2020]). The IC50 values were derived from dose-response tests. The reported data are derived from at least two independent studies, each comprising three replicates per concentration. See Supplementary Material A1 for more details.
(§3) (in 0.1% DMSO) were added (in 200 μL medium to yield a final concentration of 0.1% v/v) to the wells of plates. A single compound was designated with four wells followed by incubation of plates for 96h at 37°C. After incubation, medium was removed completely from the plates followed by addition of MTT (0.4 mg/mL in medium) to each well and subsequent incubation of plates for 3h. MTT (along with the medium) was removed and DMSO (150μL) was added to each well of the culture plates, followed by vertexing and subsequent measurement of absorbance (at 540 nm) using microplate reader. The data are shown as percentage inhibition of proliferation in comparison with controls containing 0.1% DMSO.
(§4) 4.2.1.2. Assay for antiproliferative effect […]
(§5) (10%) and 1 µg/mL each of aprotinin, leupeptin and pepstatin for 120 min. The purification was performed either at 4 °C or on ice. To record autophosphorylation level, EGFR kinase assay was carried out on the basis of DELFIA/Time-Resolved Fluorometry. The compounds were first
(§6) (1 picture or pasted object on this page, not shown here)

Data set [4] relates to HT-29. In words: Antiproliferative assay (MTT). In kind it is cell-based. The conditions noted are these: Homo sapiens, HT-29 (colon), read-out: Antiproliferative activity IC50 ± SEM, HT-29.
From the text: as §1, §2, §3, §4, §5, §6

Data set [5] deals with Panc-1. Kind of data set: Antiproliferative assay (MTT). Type of data set: cell-based. The conditions noted are these: Homo sapiens, Panc-1 (pancreatic), read-out: Antiproliferative activity IC50 ± SEM, Panc-1.
From the text: as §1, §2, §3, §4, §5, §6

The test system of data set [6] is A-549. In words: Antiproliferative assay (MTT). In kind it is cell-based. The conditions noted are these: Homo sapiens, A549, A-549 (lung), read-out: Antiproliferative activity IC50 ± SEM, A-549.
From the text: as §1, §2, §3, §4, §5, §6

The test system of data set [7] is Bax. Kind of data set: Bax activation assay. Particulars: for Bax Conc: A-549 cancer cells. Type of data set: cell-based, human. As to the method: 4.2.7. Bax activation assay
Bring all reagents, except the human Bax-α Standard, to room temperature for at least 30 minutes prior to opening. The human Bax-α Standard solution should not be left at room temperature for more than 10 minutes. All standards, controls and samples should be run in duplicate. Refer to the Assay Layout Sheet to determine the number of wells to be used and put any remaining wells with the desiccant back into the pouch and seal the ziploc. Store unused wells at 4 °C. Pipet 100 μL of Assay Buffer into the S0 (0 pg/mL standard) wells. Pipet 100 μL of Standards #1 through #6 into the appropriate wells. Pipet 100 μL of the Samples into the appropriate wells. Tap the plate gently to mix the contents. Seal the plate and incubate at room temperature on a plate shaker for 1 hour at ~500 rpm. Empty the contents of the wells and wash by adding 400 μL of wash solution to every well. Repeat the wash 4 more times for a total of 5 washes. After the final wash, empty or aspirate the wells and firmly tap the plate on a lint free paper towel to remove any remaining wash buffer.
Pipet 100 μL of yellow Antibody into each well, except the Blank. Seal the plate and incubate at room temperature on a plate shaker for 1 hour at ~500 rpm. Empty the contents of the wells and wash by adding 400 μL of wash solution to every well. Repeat the wash 4 more times for a total of 5 washes. After the final wash, empty or aspirate the wells and firmly tap the plate on a lint free paper towel to remove any remaining wash buffer. Add 100 μL of blue Conjugate to each well, except the Blank. Seal the plate and incubate at room temperature on a plate shaker for 30 minutes […]
Pipet 100 μL of Substrate Solution into each well. Incubate for 30 minutes at room temperature on a plate shaker at ~500 rpm. Pipet 100 μL Stop Solution to each well. Blank the plate reader against the Blank wells, read the optical density at 450 nm. Calculate the average net Optical Density (OD) bound for each standard and sample by subtracting the average Blank OD from the average OD for each standard and sample. Using linear graph paper, plot the Average Net OD for each standard versus Bax concentration in each standard. Approximate a straight line through the points.
The concentration of Bax in the unknowns can be determined by interpolation. […]

Data set [8] deals with Bcl-2. Kind of data set: Bcl-2 inhibition assay. In kind it is cell-based, human. Particulars: A-549 cell line. On the procedure:
4.2.8. Bcl-2 inhibition assay
Mix all reagents thoroughly without foaming before use. Wash the microwells twice with approximately 300 μL Wash Buffer per well with thorough aspiration of microwell contents between washes. Take caution not to scratch the surface of the microwells. After the last wash, empty the wells and tap microwell strips on absorbent pad or paper towel to remove excess Wash Buffer. Use the microwell strips immediately after washing or place upside down on a wet absorbent paper for not longer than 15 minutes. […] Add 100 μL of Sample […]
Diluent in duplicate to all standard wells and to the blank wells. Prepare standard (1:2 dilution) in duplicate ranging from 32 ng/mL to 0.5 ng/mL. Add 100 μL of Sample Diluent, in duplicate, to the blank wells. Add 80 μL of Sample Diluent, in duplicate, to the sample wells. Add 20 μL of each Sample, in duplicate, to the designated wells. Add 50 μL of diluted biotin-conjugate to all wells, including the blank wells. Cover with a plate cover and incubate at room temperature, on a microplate shaker at 100 rpm if available, for 2 hours. Remove plate cover and empty the wells.
Wash microwell strips 3 times as described in step 2. Add 100 μL of diluted Streptavidin-HRP to all wells, including the blank wells. Cover with a plate cover and incubate at room temperature, on a microplate shaker at 100 rpm if available, for 1 hour. Remove plate cover and empty the wells.
Wash microwell strips 3 times as described in step 2. Proceed to the next step. Pipette 100 μl of mixed TMB Substrate Solution to all wells, including the blanks. Incubate the microwell strips at room temperature (18° to 25°C) for about 15 minutes, if available on a rotator set at 100 rpm.
Avoid direct exposure to intense light. The point, at which the substrate reaction is stopped, is often determined by the ELISA reader. Many ELISA readers record absorbance only up to 2.0
O.D. Therefore, the color development within individual microwells must be watched by the person running the assay and the substrate reaction stopped before positive wells are no longer properly detectable. Stop the enzyme reaction by quickly pipetting 100 μL of Stop Solution into each well, including the blank wells. It is important that the Stop Solution is spread quickly and uniformly throughout the microwells to completely inactivate the enzyme. Results must be read immediately after the Stop Solution is added or within one hour i f the microwell strips are stored at 2 - 8°C in the dark. Read absorbance of each microwell on a spectrophotometer using 450 nm as the primary wavelength.

One may read the viability as the share of living cells, or the viability signal relative to a control. Lower therefore signals a greater loss of cells. A word on the IC50: it is the point on the concentration scale where inhibition reaches its midpoint. One may read the melting point as the temperature of the solid-liquid transition. Consider `COc1ccc(-c2cc(-c3cccc(OC)c3)nc(SCc3ccccc3)n2)cc1` [Compound 21, 2-(Benzylthio)-6-(3-methoxyphenyl)-4-(4-methoxyphenyl)pyrimidine], for which the melting point lay within 245 to 247 °C. The compound also registered a viability at 4 days, 50 µM in [1] of 89%. Moreover, the 50% inhibitory concentration (IC50) in [2] amounted to 83 nM. The IC50 in data set [3] turned out to be 86 ± 8 nM. Further, in data set [4], the half-maximal inhibitory concentration (IC50) was determined as 82 ± 8 nM. Also, in data set [5], the IC50 was found to be 82 ± 8 nM. Besides, the IC50 in data set [6] was found to be 83 ± 7 nM.

As for `C#Cc1cccc(Nc2ncnc3cc(OCCOC)c(OCCOC)cc23)c1` [Erlotinib, reference compound], the 50% inhibitory concentration (IC50) in data set [3] is 40 ± 3 nM; in data set [4], 30 ± 3 nM; in data set [5] it was 30 ± 3 nM; in data set [6], 30 ± 3 nM.

Turning to `CN[C@@H]1C[C@H]2O[C@@](C)([C@@H]1OC)n1c3ccccc3c3c4c(c5c6ccccc6n2c5c31)C(=O)NC4` [Staurosporine, reference compound], the figures for the “Bax Conc” value in data set [7] and in [7] (listed as staurosporine) were 280 ± 5 pg/mL and 280 pg/mL, respectively. Also, the “Bax Fold change” value in data set [7] (compared to untreated A-549 cancer cells) was found to be 35 fold. Moreover, the “Bcl-2 Conc” value in data set [8] was 1.10 ng/mL. In data set [8] (versus control), the “Bcl-2 Fold reduction” value is 5 fold.
